Measurements taken from patent US20260256751A1, “COMBINATION OF BETA-2-ADRENERGIC RECEPTOR AGONISTS AND GLP-1 RECEPTOR AGONISTS FOR USE IN TREATING HYPERGLYCAEMIA” (ATROGI AB, priority 2023, published 2026).

Tests used:
[1] = test system: differentiated L6-myotubes; test: cAMP production relative to isoprenaline (Biological example 2 of WO 2019/053427); type: cell-based; settings: 0.25 h, compound at 10 μM, activity relative to isoproterenol at 10 μM
Procedure, shortened: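 Differentiated L6 myotubes stimulated 15 min with test compound or isoprenaline, each at final 1×10^−5 M, in HBSS with 1% BSA, 5 mM HEPES, 1 mM IBMX, pH 7.4. cAMP production by the compound expressed relative to that induced by the same concentration of isoprenaline.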

[2] = test system: differentiated L6-myotubes; test: Glucose uptake screen (Biological example 1 of WO 2019/053427); type: cell-based; settings: compound at 10 μM, activity relative to isoproterenol at 10 μM, read-out: Biological example 1 of WO 2019/053427 (GU)
Procedure, shortened: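 Rat L6 myoblasts were differentiated into myotubes over 7 days in 2% FBS, then serum-starved overnight. Cells were stimulated with 1×10^−5 M compound plus β2 antagonist ICI-118551 for 1 h 40 min and re-dosed for 20 min in glucose-free medium. Uptake of 50 nM ^3H-2-deoxyglucose over 10 min was counted after NaOH lysis.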

Compound: CC1(C)CCC[C@H]([C@@H](O)c2ccccc2F)N1 [Compound 176, (S)-[(R)-6,6-dimethyl-2-piperidyl](o-fluorophenyl)methanol]
- Emax at 10 µM [1]: 25 to 50%
- Emax at 10 µM [2]: > 75%

Compound: CCCC1(CCC)CC[C@H]([C@H](O)c2cccc(F)c2)N1 [Compound 159, (R)-[(R)-5,5-dipropyl-2-pyrrolidinyl](m-fluorophenyl)methanol]
- Emax at 10 µM [1]: < 25%
- Emax at 10 µM [2]: 50 to 75%

Compound: CC(C)(C[C@H]1CC[C@H](NS(C)(=O)=O)CC1)NC[C@@H](O)c1cccc(C#N)n1 [Compound 428, 6-[(R)-2-{1,1-dimethyl-2-[(1r,4R)-4-(mesylamino)cyclohexyl]ethylamino}-1-hydroxyethyl]-2-pyridinecarobnitrile]
- Emax at 10 µM [1]: < 25%
- Emax at 10 µM [2]: < 25%

Compound: Oc1ccc(C(O)CNCCC2CC2)cc1 (centres unmarked) [Compound 24, p-[2-(2-cyclopropylethylamino)-1-hydroxyethyl]phenol]
- Emax at 10 µM [1]: < 25%
- Emax at 10 µM [2]: 50 to 75%

Compound: CC1(C)CC[C@H]([C@@H](O)c2cccc(F)c2)N1 [Compound 109, (S)-[(R)-5,5-dimethyl-2-pyrrolidinyl](m-fluorophenyl)methanol]
- Emax at 10 µM [1]: < 25%
- Emax at 10 µM [2]: 25 to 50%

Compound: CC(C)(C[C@H]1CC[C@H](NS(C)(=O)=O)CC1)NC[C@H](O)c1cccc(F)c1 [Compound 382, (R)-2-{1,1-dimethyl-2-[(1r,4R)-4-(mesylamino)cyclohexyl]ethylamino}-1-(m-fluorophenyl)-1-ethanol]
- Emax at 10 µM [1]: 25 to 50%
- Emax at 10 µM [2]: > 75%

Compound: CC(C)(C)CNC[C@H](O)c1cccc(F)c1 [Compound 117, (R)-1-(m-flurophenyl)-2-(neopentylamino)-1-ethanol]
- Emax at 10 µM [1]: < 25%
- Emax at 10 µM [2]: 25 to 50%

Compound: CC1(C)CCC[C@@H]([C@H](O)c2ccccc2F)N1 [Compound 193, (R)-[(S)-6,6-dimethyl-2-piperidyl](o-fluorophenyl)methanol]
- Emax at 10 µM [1]: 25 to 50%
- Emax at 10 µM [2]: > 75%

Compound: CC(C)(C[C@H]1CC[C@H](NS(C)(=O)=O)CC1)NC[C@H](O)c1cccc(C(F)(F)F)n1 [Compound 461, (S)-2-{1,1-dimethyl-2-[(1r,4S)-4-(mesylamino)cyclohexyl]ethylamino}-1-[6-(trifluoromethyl)-2-pyridyl]-1-ethanol]
- Emax at 10 µM [1]: < 25%
- Emax at 10 µM [2]: 25 to 50%

Compound: CCCCNCC(O)c1cccnc1 (centres unmarked) [Compound 49, 2-(butylamino)-1-(3-pyridyl)-1-ethanol]
- Emax at 10 µM [1]: < 25%
- Emax at 10 µM [2]: 50 to 75%

Compound: O[C@@H](CNC[C@H]1CC[C@@H](O)CC1)c1cccc(F)c1 [Compound 268, (R)-1-(m-fluorophenyl)-2-({[(1s,4S)-4-hydroxycyclohexyl]meth-yl}amino)-1-ethanol]
- Emax at 10 µM [1]: < 25%
- Emax at 10 µM [2]: 25 to 50%

Compound: CC(C)(C[C@H]1CC[C@@H](NC(=O)OC(C)(C)C)CC1)NC[C@H](O)c1cccc(F)c1 [Compound 449]
- Emax at 10 µM [1]: < 25%
- Emax at 10 µM [2]: 50 to 75%

Compound: CO[C@H]1CC[C@H](C[C@H]2CC[C@H]([C@@H](O)c3cncc(F)c3)N2)CC1 [Compound 340, (S)-[(2R,5R)-5-{[(1r,4R)-4-methoxycyclohexyl]methyl}-2-pyrrolidinyl](5-fluoro-3-pyridyl)methanol]
- Emax at 10 µM [1]: < 25%
- Emax at 10 µM [2]: 25 to 50%

Compound: CC1(C)CCC[C@H]([C@@H](O)c2cccc(O)c2)N1 [Compound 103, (S)-[(R)-6,6-dimethyl-2-piperidyl](m-hydroxyphenyl)methanol]
- Emax at 10 µM [1]: < 25%
- Emax at 10 µM [2]: 25 to 50%

Compound: CC(=O)N[C@H]1CC[C@H](C[C@@H]2CC[C@H]([C@H](O)c3cccc(F)c3)N2)CC1 [Compound 485, N-[(1S,4r)-4-({(2S,5R)-5-[(R)-(m-fluorophenyl)hydroxymethyl]-2-pyrrolidinyl}methyl)cyclohexyl]acetamide]
- Emax at 10 µM [1]: < 25%
- Emax at 10 µM [2]: 50 to 75%

Compound: CCC[C@H]1CCC[C@@H]([C@H](O)c2cccc(F)c2)N1 [Compound 120, (R)-[(2S,6S)-6-propyl-2-piperidyl](m-fluorophenyl)methanol]
- Emax at 10 µM [1]: < 25%
- Emax at 10 µM [2]: 50 to 75%

Compound: Oc1ccc(C(O)CNCCCC2CC2)cc1 (centres unmarked) [Compound 30, 2-(3-cyclopropylpropylamino)-1-(p-hydroxyphenyl)-1-ethanol]
- Emax at 10 µM [1]: < 25%
- Emax at 10 µM [2]: > 75%

Compound: O[C@@H](CNC[C@H]1CC[C@H](O)CC1)c1cncc(F)c1 [Compound 274, (R)-1-(5-fluoro-3-pyridyl)-2-({[(1r,4R)-4-hydroxycyclohexyl]meth-yl}amino)-1-ethanol]
- Emax at 10 µM [1]: < 25%
- Emax at 10 µM [2]: < 25%

Compound: Cc1ncccc1[C@@H](O)CNC(C)(C)C[C@H]1CC[C@H](NS(C)(=O)=O)CC1 [Compound 435, (R)-2-{1,1-dimethyl-2-[(1r,4R)-4-(mesylamino)cyclohexyl]ethylamino}-1-(2-methyl-3-pyridyl)-1-ethanol]
- Emax at 10 µM [1]: < 25%
- Emax at 10 µM [2]: 25 to 50%

Compound: CCC[C@@H]1CCC[C@@H]([C@@H](O)c2cccc(O)c2)N1 [Compound 113, (S)-[(2S,6R)-6-propyl-2-piperidyl](m-hydroxyphenyl)methanol]
- Emax at 10 µM [1]: < 25%
- Emax at 10 µM [2]: 50 to 75%

Compound: CC(C)(NC[C@H](O)c1cncc(F)c1)[C@H]1CC[C@@H](C(=O)O)CC1 [Compound 323, (1S,4s)-8-[(R)-2-(5-fluoro-3-pyridyl)-2-hydroxyethylamino]-7-hydroxy-p-menthan-7-one]
- Emax at 10 µM [1]: 50 to 75%
- Emax at 10 µM [2]: 25 to 50%

Compound: CC12CC(C1)[C@H]([C@H](O)c1cncc(F)c1)N2 [Compound 220, (R)-{(R)-1-methyl-2-azabicyclo[2.1.1]hex-3-yl}(5-fluoro-3-pyridyl)methanol]
- Emax at 10 µM [1]: < 25%
- Emax at 10 µM [2]: > 75%

Compound: CC(C)(C)NC[C@H](O)c1ccc(F)cc1O [Compound 80, (R)-2-(tert-butylamino)-1-(4-fluoro-2-hydroxyphenyl)-1-ethanol]
- Emax at 10 µM [1]: < 25%
- Emax at 10 µM [2]: 50 to 75%

Compound: CC(C)(C)NC[C@H](O)c1cncc(F)c1 [Compound 99, (R)-2-(tert-butylamino)-1-(5-fluoro-3-pyridyl)-1-ethanol]
- Emax at 10 µM [1]: 25 to 50%
- Emax at 10 µM [2]: > 75%

Compound: C[C@H]1CC[C@@H]([C@H](O)c2cccc(O)c2)N1 (racemic) [Compound 40, Racemic mixture of m-{(R)-[(2S,5S)-5-methyl-2-pyrrolidinyl]hydroxymeth-yl}phenol and m-{(S)-[(2R,5R)-5-methyl-2-pyrrolidinyl]hydroxymeth-yl}phenol]
- Emax at 10 µM [1]: < 25%
- Emax at 10 µM [2]: 50 to 75%

Compound: COC(=O)[C@H]1CC[C@H](CC(C)(C)NC[C@H](O)c2cccc(F)c2)CC1 [Compound 353, methyl (1R,4r)-4-{2-[(R)-2-(m-fluorophenyl)-2-hydroxyethylamino]-2-methylpropyl}cyclohexanecarboxylate]
- Emax at 10 µM [1]: < 25%
- Emax at 10 µM [2]: > 75%

Compound: CC1(C)CC[C@@H]([C@@H](O)c2cccc(O)c2)N1 [Compound 143, m-{(S)-[(S)-5,5-dimethyl-2-pyrrolidinyl]hydroxymeth-yl}phenol]
- Emax at 10 µM [1]: < 25%
- Emax at 10 µM [2]: < 25%

Compound: CCC[C@H]1CCC[C@H]([C@H](O)c2ccc(F)c(F)c2)N1 [Compound 67, (R)-[(2R,6S)-6-propyl-2-piperidyl](3,4-difluorophenyl)methanol]
- Emax at 10 µM [1]: < 25%
- Emax at 10 µM [2]: 25 to 50%

Compound: O[C@H](c1cncc(F)c1)C12CCC(COCc3ccc(OC(F)(F)F)cc3)(CC1)N2 [Compound 490, (R)-(5-fluoro-3-pyridyl)(4-{[(p-trifluoromethoxyphenyl)methoxy]methyl}-7-azabicyclo[2.2.1]hept-1-yl)methanol]
- Emax at 10 µM [1]: < 25%
- Emax at 10 µM [2]: 50 to 75%

Compound: CO[C@H]1CC[C@H](C(C)(C)NC[C@H](O)c2cncc(F)c2)CC1 [Compound 240, (R)-1-(5-fluoro-3-pyridyl)-2-{1-methyl-1-[(1r,4R)-4-methoxycyclohexyl]ethyl-amino}-1-ethanol]
- Emax at 10 µM [1]: < 25%
- Emax at 10 µM [2]: > 75%

Compound: CC1(C)C[C@H]([C@@H](O)c2ccccc2F)N1 [Compound 203, (S)-[(R)-4,4-dimethyl-2-azetidinyl](o-fluorophenyl)methanol]
- Emax at 10 µM [1]: < 25%
- Emax at 10 µM [2]: 25 to 50%

Compound: CC1(C)CC[C@H]([C@@H](O)c2cncc(O)c2)N1 [Compound 166, 5-{(S)-[(R)-5,5-dimethyl-2-pyrrolidinyl]hydroxymeth-yl}-3-pyridinol]
- Emax at 10 µM [1]: < 25%
- Emax at 10 µM [2]: 25 to 50%

Compound: CO[C@H]1CC[C@H](C[C@@H]2CC[C@H]([C@@H](O)c3ccccc3F)N2)CC1 [Compound 336]
- Emax at 10 µM [1]: < 25%
- Emax at 10 µM [2]: 25 to 50%

Compound: CS(=O)(=O)N(Cc1ccccc1)c1ccc(CC23CCC([C@@H](O)c4cccc(F)c4)(CC2)N3)cc1 [Compound 472, (S)-[4-({p-[(benzyl)-N-mesylamino]phenyl}methyl)-7-azabicyclo[2.2.1]hept-1-yl](m-fluorophenyl)methanol]
- Emax at 10 µM [1]: < 25%
- Emax at 10 µM [2]: 25 to 50%

Compound: COc1ccc(C[C@@]2(C)CC[C@H]([C@H](O)c3cccc(F)c3)N2)cc1 [Compound 366, (R)-{(2R,5R)-5-[(p-methoxyphenyl)methyl]-5-methyl-2-pyrrolidinyl}(m-fluorophenyl)methanol]
- Emax at 10 µM [1]: 25 to 50%
- Emax at 10 µM [2]: > 75%

Compound: O[C@@H](c1cccc(F)c1)C12CCC(Cc3ccc(F)cc3)(CC1)N2 [Compound 412, (S)-(m-fluorophenyl){4-[(p-fluorophenyl)methyl]-7-azabicyclo[2.2.1]hept-1-yl}methanol]
- Emax at 10 µM [1]: < 25%
- Emax at 10 µM [2]: 50 to 75%

Compound: CCC[C@@H](C)NC[C@H](O)c1ccc(O)cc1 [Compound 27, (R)-2-[(R)-1-methylbutylamino]-1-(p-hydroxyphenyl)-1-ethanol]
- Emax at 10 µM [1]: 25 to 50%
- Emax at 10 µM [2]: > 75%
